Test results reported in patent US8076487B2, “Pyridone derivative and herbicide” (Kumiai Chemical Industry Co., Ltd., priority 2006, dated 2011).

Key:
Type in all cases: in vivo
[1] = system: velvetleaf (Abutilon theophrasti medicus); test: Test Example 3: herbicidal effect by application to upland field (foliage treatment); details: foliage treatment, 1,000 g active ingredient per 1 hectare, 14th day after application, greenhouse
Procedure, shortened: (§1)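 Plants were sown in field soil and raised in a greenhouse for two weeks before foliar spraying. A water-diluted wettable powder was applied at 1,000 g active ingredient per hectare in 1,000 liters per hectare. Herbicidal effect was scored on a standard scale 14 days later.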

[2] = system: green foxtail (Setaria viridis (L.) P. Beauv.); test: as above; details: foliage treatment, 1,000 g active ingredient per 1 hectare, 14th day after application, greenhouse
Procedure, shortened: as §1

[3] = system: barnyardgrass (Echinochloa crus-galli (L.) P. Beauv. var. crus-galli); test: as above; details: foliage treatment, 1,000 g active ingredient per 1 hectare, 14th day after application, greenhouse
Procedure, shortened: as §1

[4] = system: slender amaranth (Amaranthus viridis L.); test: as above; details: foliage treatment, 1,000 g active ingredient per 1 hectare, 14th day after application, greenhouse
Procedure, shortened: as §1

[5] = system: velvetleaf (Abutilon theophrasti medicus); test: Test Example 2: herbicidal effect by soil application to upland field; details: soil surface spray, upland field soil, 1,000 g active ingredient per hectare, 21st day after application
Procedure, shortened: (§2)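 Pots of field soil, seeds sown and soil-covered; wettable powder diluted in water sprayed on soil at 1,000 g a.i./ha (1,000 L/ha). Greenhouse-grown; herbicidal effect rated per standard at 21 days post-application.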

[6] = system: green foxtail (Setaria viridis (L.) P. Beauv.); test: as above; details: soil surface spray, upland field soil, 1,000 g active ingredient per hectare, 21st day after application
Procedure, shortened: as §2

[7] = system: barnyardgrass (Echinochloa crus-galli (L.) P. Beauv. var. crus-galli); test: as above; details: soil surface spray, upland field soil, 1,000 g active ingredient per hectare, 21st day after application
Procedure, shortened: as §2

[8] = system: slender amaranth (Amaranthus viridis L.); test: as above; details: soil surface spray, upland field soil, 1,000 g active ingredient per hectare, 21st day after application
Procedure, shortened: as §2

[9] = system: early watergrass (Echinochloa oryzicola Vasing); test: Test Example 1: herbicidal effect by soil application to paddy field; details: paddy field soil application; active ingredient 1,000 g per 1 hectare; wettable powder added dropwise to water surface the day after sowing; examined on the 21st day after application
Procedure, shortened: (§3)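 Plants were sown in flooded (3 cm) paddy soil and evaluated for herbicidal effect 21 days after soil application in a greenhouse.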

[10] = system: Japanese bulrush (Scirpus juncoides Roxb.); test: as above; details: paddy field soil application; active ingredient 1,000 g per 1 hectare; wettable powder added dropwise to water surface the day after sowing; examined on the 21st day after application
Procedure, shortened: as §3

[11] = system: heartshape false pickerelweed (Monochoria vaginalis (Burm.f.) C.Presl); test: as above; details: paddy field soil application; active ingredient 1,000 g per 1 hectare; wettable powder added dropwise to water surface the day after sowing; examined on the 21st day after application
Procedure, shortened: as §3

Row | SMILES | herbicidal effect, Velvetleaf [1] | herbicidal effect, Green Foxtail [2] | herbicidal effect, Barnyardgrass [3] | herbicidal effect, Slender Amaranth [4] | herbicidal effect (index), Velvetleaf [5] | herbicidal effect (index), Green Foxtail [6] | herbicidal effect (index), Barnyardgrass [7] | herbicidal effect (index), Slender Amaranth [8] | herbicidal effect, Echinochloa oryzicola Vasing [9] | herbicidal effect, Scirpus juncoides Roxb. [10] | herbicidal effect, Monochoria vaginalis (Burm. f.) C. Presl [11]
1 | CCOCCn1c(C(F)(F)F)ccc(C(=O)c2cnn(C)c2O)c1=O [IV-34] | 5 (90% or more of herbicidal effect and crop phytotoxicity) | 5 (90% or more of herbicidal effect and crop phytotoxicity) | 5 (90% or more of herbicidal effect and crop phytotoxicity) | 5 (90% or more of herbicidal effect and crop phytotoxicity) | 5 (90% or more of herbicidal effect and crop phytotoxicity) | 5 (90% or more of herbicidal effect and crop phytotoxicity) | 5 (90% or more of herbicidal effect and crop phytotoxicity) | 5 (90% or more of herbicidal effect and crop phytotoxicity) | 5 (90% or more of herbicidal effect and crop phytotoxicity) | 5 (90% or more of herbicidal effect and crop phytotoxicity) | 5 (90% or more of herbicidal effect and crop phytotoxicity)
2 | CCOCCn1c(C(F)(F)F)ccc(C(=O)c2cnn(C)c2OC(=O)c2ccccc2)c1=O [IV-35] | 5 (90% or more of herbicidal effect and crop phytotoxicity) | 5 (90% or more of herbicidal effect and crop phytotoxicity) | 5 (90% or more of herbicidal effect and crop phytotoxicity) | 5 (90% or more of herbicidal effect and crop phytotoxicity) | 5 (90% or more of herbicidal effect and crop phytotoxicity) | 5 (90% or more of herbicidal effect and crop phytotoxicity) | 5 (90% or more of herbicidal effect and crop phytotoxicity) | 5 (90% or more of herbicidal effect and crop phytotoxicity) | 5 (90% or more of herbicidal effect and crop phytotoxicity) | 5 (90% or more of herbicidal effect and crop phytotoxicity) | 5 (90% or more of herbicidal effect and crop phytotoxicity)
3 | COCC(C)n1c(C(F)(F)F)ccc(C(=O)c2cnn(C)c2O)c1=O (stereo not drawn) [IV-36] | 5 (90% or more of herbicidal effect and crop phytotoxicity) | 5 (90% or more of herbicidal effect and crop phytotoxicity) | 5 (90% or more of herbicidal effect and crop phytotoxicity) | 5 (90% or more of herbicidal effect and crop phytotoxicity) | 5 (90% or more of herbicidal effect and crop phytotoxicity) | 3 (50 to less than 70% of herbicidal effect and crop phytotoxicity) | 5 (90% or more of herbicidal effect and crop phytotoxicity) | 5 (90% or more of herbicidal effect and crop phytotoxicity) | 5 (90% or more of herbicidal effect and crop phytotoxicity) | 5 (90% or more of herbicidal effect and crop phytotoxicity) | 5 (90% or more of herbicidal effect and crop phytotoxicity)
4 | CCCS(=O)(=O)Oc1c(C(=O)c2ccc(C(F)(F)F)n(C(C)COC)c2=O)cnn1C (stereo not drawn) [IV-37] | 5 (90% or more of herbicidal effect and crop phytotoxicity) | 3 (50 to less than 70% of herbicidal effect and crop phytotoxicity) | 5 (90% or more of herbicidal effect and crop phytotoxicity) | 5 (90% or more of herbicidal effect and crop phytotoxicity) | 5 (90% or more of herbicidal effect and crop phytotoxicity) | 5 (90% or more of herbicidal effect and crop phytotoxicity) | 5 (90% or more of herbicidal effect and crop phytotoxicity) | 5 (90% or more of herbicidal effect and crop phytotoxicity) | 5 (90% or more of herbicidal effect and crop phytotoxicity) | 5 (90% or more of herbicidal effect and crop phytotoxicity) | 5 (90% or more of herbicidal effect and crop phytotoxicity)
5 | COC(C)Cn1c(C(F)(F)F)ccc(C(=O)c2cnn(C)c2O)c1=O (stereo not drawn) [IV-38] | 5 (90% or more of herbicidal effect and crop phytotoxicity) | 5 (90% or more of herbicidal effect and crop phytotoxicity) | 5 (90% or more of herbicidal effect and crop phytotoxicity) | 5 (90% or more of herbicidal effect and crop phytotoxicity) | 5 (90% or more of herbicidal effect and crop phytotoxicity) | 4 (70 to less than 90% of herbicidal effect and crop phytotoxicity) | 5 (90% or more of herbicidal effect and crop phytotoxicity) | 5 (90% or more of herbicidal effect and crop phytotoxicity) | 5 (90% or more of herbicidal effect and crop phytotoxicity) | 5 (90% or more of herbicidal effect and crop phytotoxicity) | 5 (90% or more of herbicidal effect and crop phytotoxicity)
6 | CCCS(=O)(=O)Oc1c(C(=O)c2ccc(C(F)(F)F)n(CC(C)OC)c2=O)cnn1C (stereo not drawn) [IV-39] | 5 (90% or more of herbicidal effect and crop phytotoxicity) | 3 (50 to less than 70% of herbicidal effect and crop phytotoxicity) | 5 (90% or more of herbicidal effect and crop phytotoxicity) | 5 (90% or more of herbicidal effect and crop phytotoxicity) | 4 (70 to less than 90% of herbicidal effect and crop phytotoxicity) | 3 (50 to less than 70% of herbicidal effect and crop phytotoxicity) | 5 (90% or more of herbicidal effect and crop phytotoxicity) | 4 (70 to less than 90% of herbicidal effect and crop phytotoxicity) | 5 (90% or more of herbicidal effect and crop phytotoxicity) | 5 (90% or more of herbicidal effect and crop phytotoxicity) | 5 (90% or more of herbicidal effect and crop phytotoxicity)
